Among the data in PubChem BioAssay (NCI) are GI50 and TGI values, retold here.

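96-well plates; 48 h exposure; 5 concentrations. Endpoints by linear interpolation between flanking doses. Not reached: highest tested concentration assigned. The concentration for 50% growth inhibition is given as GI50. TGI denotes the concentration required for complete inhibition of growth.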

Assay in all cases: NCI-60 cell line screen, 48 h
For experiment [1], the system named is SNB-75 CNS.
The test system of experiment [2] is SN12C renal.
Experiment [3] has as its system SK-OV-3 ovarian.
In experiment [4] the test system is COLO 205 colon.
Experiment [5] has as its system CAKI-1 renal.
The test system of experiment [6] is SNB-19 CNS.
For experiment [7], the system named is LOX IMVI melanoma.
The subject of experiment [8] is U251 CNS.
Experiment [9] deals with HS 578T breast.
Experiment [10] concerns SF-295 CNS.

For the compound `COc1ccc(C(=O)/C=C/c2cc3ccccc3[nH]c2=O)cc1`, the GI50 in experiment [1] is 15.3 µM; in experiment [2] it was 21.1 µM; in experiment [3], 22.7 µM; in [4], 18.5 µM; in experiment [5], 14.9 µM; in [6], 23.2 µM. In addition, the GI50 in [7] is 13.7 µM; in [8], 17.5 µM; in [9] it was 20.8 µM; in [10], 20.3 µM. Moreover, the TGI in [1] was 34.8 µM; in experiment [2] it was > 100 µM; in experiment [3] it was > 91.6 µM; in experiment [4] it was 35.3 µM; in experiment [5], 28.2 µM; in [6] it was > 57.5 µM. Besides, the TGI in experiment [7] is 25.4 µM; in experiment [8] it was 43 µM; in experiment [9], > 100 µM; in experiment [10], > 57.1 µM.
